# Counter-ions that a name gives are not always drawn.
# Key:
# 5-HT6 receptor [1] = target: T1, 5-HT6 receptor (Homo sapiens (Human), UniProt P50406); test: Competitive radioligand binding ([3H] Lysergic acid diethylamide) to serotonin 5-HT6 receptors, HeLa cell membranes
# Procedure: Screening of the disclosed compounds for their potential ability to interact with serotonin 5-HT6 receptors was carried out by the method of radioligand binding. For this purpose membrane species were prepared from HeLa cells expressing recombinant human 5-HT6 receptors, by means of cells homogenization in glass homogenizer with subsequent separation of plasmatic membranes from cell nucli, mitochondria's and cell wreckages by differential centrifugation. Determination of tested compounds binding to 5-HT6 receptors was carried out according to the method described in [Monsma F J Jr, Shen Y, Ward R P, Hamblin M W and Sibley D R, Cloning and expression of a novel serotonin receptor with high affinity for tricyclic psychotropic drugs. Mol Pharmacol. 43:320-327, 1993]. […] Methiothepin was used as a positive control. Binding of the tested compounds with the receptor was determined by their ability to displace the radioligand and was expressed in percent of displacement. The percent of displacement was calculated according to the following equation:
# [formula] wherein: TA—was overall radioactivity in the presence of radioligand only, CA—was radioactivity in the presence of radioligand and tested compound and NA—was radioactivity in the presence of radioligand and Serotonin (5 μM).
# 5-HT6 receptor [2] = target: T1, 5-HT6 receptor; test: Antagonistic activity test towards 5-HT6 receptors (serotonin-induced intracellular cAMP, LANCE cAMP kit, HEK 293 cells); type: cell-based; details: read-out: IC50 in the setting of functional assay
# Procedure: Antagonistic activity test of compounds of the general formulas 1 and 2 towards 5-HT6 receptors. Compounds of general formulas 1 and 2 were tested for their ability to prevent 5-HT6 receptors activation by serotonin. HEK 293 cells (kidney cells of human's embryo) with artificially expressed 5-HT6 receptor, activation of which by serotonin leads to increasing the concentration of intracellular cAMP were used. Intracellular cAMP content was determined using reagent kit LANCE cAMP (PerkinElmer) according to the method described by the manufacturer of the kit [http://las.perkinelmer.com/content/Manuals]. Effectiveness of compounds was estimated by their ability to reduce the content of intracellular cAMP induced by serotonin.
# T1 sequence (P50406 whole entry): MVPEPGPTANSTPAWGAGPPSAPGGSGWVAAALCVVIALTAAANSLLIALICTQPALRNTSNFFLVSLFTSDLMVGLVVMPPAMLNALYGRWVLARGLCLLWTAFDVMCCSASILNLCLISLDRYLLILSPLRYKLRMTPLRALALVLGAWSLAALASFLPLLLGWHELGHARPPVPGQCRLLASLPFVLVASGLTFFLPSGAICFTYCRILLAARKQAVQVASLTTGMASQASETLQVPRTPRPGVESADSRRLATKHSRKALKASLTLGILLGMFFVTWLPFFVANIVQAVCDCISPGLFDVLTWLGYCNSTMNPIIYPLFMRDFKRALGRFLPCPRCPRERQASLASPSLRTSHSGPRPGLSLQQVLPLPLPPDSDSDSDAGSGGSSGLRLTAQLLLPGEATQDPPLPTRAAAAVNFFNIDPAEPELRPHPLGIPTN
SMILES,IC50 (5-HT6 receptor [1]; 1.5 nM [3H] Lysergic acid diethylamide) [nM],Ki (5-HT6 receptor [1]; Ki=IC50/(1+[L]/KD)) [nM],IC50 (5-HT6 receptor [2]) [nM]
CNc1nn2c3c(c(C)nc2c1S(=O)(=O)c1ccccc1)CN(C)CC3 [1.1(4)•HCl],1.48,0.685,
"CNc1nn2c3c(cnc2c1S(=O)(=O)c1ccccc1)CN(C)CC3 [1.1(3), 2-methylamino-7-methyl-3-phenylsulfonyl-6,7,8,9-tetrahydropyrazolo[1,5-a]pyrido[4,3-e]pyrimidine]",,,29.7

# — US8552017B2, “2-amino-3-sulphonyl-tetrahydro-pyrazolo[1,5-A]pyrido-pyrimidine antagonists of serotonin 5-HT6 receptors, methods for the production and use thereof” (priority 2008, dated 2013)
